Reference: PubChem BioAssay AID248 (DTP/NCI, 2004)
“And” between values parts separate entries of the source, which are not always exact repeats. Equal entries are not always repeated. Toxic doses and inconclusive results are not listed. Cut-off read from the data, not from the text of the source: active = T/C of 150% or more; inactive = T/C below 125%.

Tested on: L1210 leukemia ip in BDF1 mice, survival T/C
Assay: NCI In Vivo Anticancer Drug Screen. Data for tumor model L1210 Leukemia (intraperitoneal) in B6D2F1 (BDF1) mice
Details: endpoint: mean survival time, higher = longer survival
Summary of the method: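 Survival endpoint. Drug-treated group vs vehicle group, expressed as T divided by C. Tumor passaged by transplantation.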

[1] = dose: 100.0 mg/kg/injection, schedule: Q01DX001 (ip), vehicle: saline
[2] = dose: 200.0 mg/kg/injection, schedule: Q01DX001 (ip), vehicle: saline
[3] = dose: 400.0 mg/kg/injection, schedule: Q01DX001 (ip), vehicle: saline
[4] = dose: 100.0 mg/kg/injection, schedule: Q04DX003 (ip), vehicle: Klucel (hydroxypropylcellulose) (HPC)
[5] = dose: 200.0 mg/kg/injection, schedule: Q04DX003 (ip), vehicle: Klucel (hydroxypropylcellulose) (HPC)
[6] = dose: 400.0 mg/kg/injection, schedule: Q04DX003 (ip), vehicle: Klucel (hydroxypropylcellulose) (HPC)
[7] = dose: 50.0 mg/kg/injection, schedule: Q04DX003 (ip), vehicle: Klucel (hydroxypropylcellulose) (HPC)
[8] = dose: 100.0 mg/kg/injection, schedule: Q04DX002 (ip), vehicle: saline with Tween-80
[9] = dose: 100.0 mg/kg/injection, schedule: Q01DX009 (ip), vehicle: Klucel (hydroxypropylcellulose) (HPC)
[10] = dose: 200.0 mg/kg/injection, schedule: Q01DX009 (ip), vehicle: Klucel (hydroxypropylcellulose) (HPC)
[11] = dose: 400.0 mg/kg/injection, schedule: Q01DX009 (ip), vehicle: Klucel (hydroxypropylcellulose) (HPC)
[12] = dose: 50.0 mg/kg/injection, schedule: Q01DX001 (ip), vehicle: saline

Measured: T/C

C=CCNC(=O)c1ccccc1O
inactive: dose: 100.0 mg/kg/injection, schedule: Q01DX009 (sc), vehicle: olive oil, sesame oil, peanut oil 101 % of control | dose: 100.0 mg/kg/injection, schedule: Q04DX003 (sc), vehicle: olive oil, sesame oil, peanut oil 91 % of control | dose: 200.0 mg/kg/injection, schedule: Q01DX009 (sc), vehicle: olive oil, sesame oil, peanut oil 101 % of control | dose: 200.0 mg/kg/injection, schedule: Q04DX003 (sc), vehicle: olive oil, sesame oil, peanut oil 100 % of control | dose: 400.0 mg/kg/injection, schedule: Q01DX009 (sc), vehicle: olive oil, sesame oil, peanut oil 94 % of control | dose: 400.0 mg/kg/injection, schedule: Q04DX003 (sc), vehicle: olive oil, sesame oil, peanut oil 91 % of control

CC(C)CCCCCCCCCCCCC(=O)NCC(=O)NC1C(O)C(O)C(Nc2ncnc3nc[nH]c23)OC1C(O)CO (configuration not stated)
inactive: dose: 0.3 mg/kg/injection, schedule: Q## X000 (ip), vehicle: carboxymethylcellulose (CMC) 100 % of control | dose: 0.4 mg/kg/injection, schedule: Q01DX Z (ip), vehicle: carboxymethylcellulose (CMC) 107 % of control | dose: 0.44 mg/kg/injection, schedule: Q## X000 (ip), vehicle: carboxymethylcellulose (CMC) 107 % of control | dose: 0.6 mg/kg/injection, schedule: Q01DX Z (ip), vehicle: carboxymethylcellulose (CMC) 104 % of control | dose: 0.66 mg/kg/injection, schedule: Q## X000 (ip), vehicle: carboxymethylcellulose (CMC) 98 % of control | dose: 0.9 mg/kg/injection, schedule: Q01DX Z (ip), vehicle: carboxymethylcellulose (CMC) 103 % of control | dose: 1.0 mg/kg/injection, schedule: Q01DX001 (ip), vehicle: saline 101 % of control | dose: 1.0 mg/kg/injection, schedule: Q## X000 (ip), vehicle: carboxymethylcellulose (CMC) 110 % of control | dose: 1.35 mg/kg/injection, schedule: Q01DX Z (ip), vehicle: carboxymethylcellulose (CMC) 107 % of control | dose: 2.0 mg/kg/injection, schedule: Q01DX001 (ip), vehicle: saline 98 % of control | dose: 4.0 mg/kg/injection, schedule: Q01DX001 (ip), vehicle: saline 98 % of control | dose: 8.0 mg/kg/injection, schedule: Q01DX001 (ip), vehicle: saline 101 % of control | dose: 12.0 mg/kg/injection, schedule: Q01DX001 (ip), vehicle: saline 105 % of control | dose: 18.0 mg/kg/injection, schedule: Q01DX001 (ip), vehicle: saline 112 % of control | dose: 27.0 mg/kg/injection, schedule: Q01DX001 (ip), vehicle: saline 96 % of control

Cc1ccc(C)c2c1[nH]c1c(C)c3ccncc3c(C)c12
inactive: dose: 25.0 mg/kg/injection, schedule: Q01DX Z (ip), vehicle: saline 103 % of control | dose: 50.0 mg/kg/injection, schedule: Q01DX Z (ip), vehicle: saline 103 % of control | [1] 100 % of control | dose: 100.0 mg/kg/injection, schedule: Q01DX Z (ip), vehicle: saline 112 % of control | [2] 96 % of control | [3] 103 % of control

O=[N+]([O-])c1cc([N+](=O)[O-])c(NN(c2ccccc2)c2ccccc2)c([N+](=O)[O-])c1
inactive: dose: 12.5 mg/kg/injection, schedule: Q01DX Z (ip), vehicle: other 106 % of control | dose: 25.0 mg/kg/injection, schedule: Q01DX Z (ip), vehicle: other 102 % of control | [4] 92 % of control | [5] 88 % of control | [6] 91 % of control

S=C1NCc2ccccc2N1
inactive: dose: 12.5 mg/kg/injection, schedule: Q04DX003 (ip), vehicle: Klucel (hydroxypropylcellulose) (HPC) 93 % of control | dose: 25.0 mg/kg/injection, schedule: Q04DX003 (ip), vehicle: Klucel (hydroxypropylcellulose) (HPC) 95 % of control | [7] 103 % of control | dose: 100.0 mg/kg/injection, schedule: Q01DX001 (ip), vehicle: Klucel (hydroxypropylcellulose) (HPC) 102 % of control

CC(=O)OC(C)c1ccc(Cl)cc1 (configuration not stated)
inactive: [8] 101 % of control | dose: 200.0 mg/kg/injection, schedule: Q04DX002 (ip), vehicle: saline with Tween-80 97 % of control | dose: 400.0 mg/kg/injection, schedule: Q04DX002 (ip), vehicle: saline with Tween-80 93 % of control

C[N+]1([O-])C2CCC1CC(OC(=O)C(O)c1ccccc1)C2 (configuration not stated)
inactive: dose: 75.0 mg/kg/injection, schedule: Q01DX001 (ip), vehicle: saline 110 % of control | dose: 150.0 mg/kg/injection, schedule: Q01DX001 (ip), vehicle: saline 100 % of control | dose: 300.0 mg/kg/injection, schedule: Q01DX001 (ip), vehicle: saline 95 % of control

S=C1SCN(C2CCCCC2)CN1C1CCCCC1
inactive: [9] 94 % of control | [4] 91 % of control | [10] 95 % of control | [5] 100 % of control | [11] 94 % of control | [6] 100 % of control

CN(C)c1ccc(N=O)cc1
inactive: dose: 0.78 mg/kg/injection, schedule: Q04DX002 (ip), vehicle: saline 89 % of control | dose: 1.56 mg/kg/injection, schedule: Q01DX009 (ip), vehicle: saline 93 % of control | dose: 1.56 mg/kg/injection, schedule: Q04DX002 (ip), vehicle: saline 95 % of control | dose: 3.13 mg/kg/injection, schedule: Q01DX009 (ip), vehicle: saline 93 % of control | dose: 3.13 mg/kg/injection, schedule: Q04DX002 (ip), vehicle: saline 95 % of control | dose: 6.25 mg/kg/injection, schedule: Q01DX009 (ip), vehicle: saline 97 % of control | dose: 6.25 mg/kg/injection, schedule: Q04DX002 (ip), vehicle: saline 100 % of control

CNC(=O)n1ncnc1N
inactive: dose: 100.0 mg/kg/injection, schedule: Q04DX003 (ip), vehicle: saline 94 % of control | dose: 200.0 mg/kg/injection, schedule: Q04DX003 (ip), vehicle: saline 96 % of control | dose: 400.0 mg/kg/injection, schedule: Q04DX003 (ip), vehicle: saline 97 % of control

CC(C)CNC(=O)c1cccc(-c2ccccc2C(=O)NCC(C)C)c1
inactive: dose: 100.0 mg/kg/injection, schedule: Q01DX001 (ip), vehicle: other 91 % of control | dose: 200.0 mg/kg/injection, schedule: Q01DX001 (ip), vehicle: other 93 % of control | dose: 400.0 mg/kg/injection, schedule: Q01DX001 (ip), vehicle: other 96 % of control

CC(C)(C)C#CC#CC(C)(C)C
inactive: dose: 10.0 mg/kg/injection, schedule: Q04DX003 (ip), vehicle: saline 95 % of control | dose: 20.0 mg/kg/injection, schedule: Q04DX003 (ip), vehicle: saline 100 % of control | dose: 40.0 mg/kg/injection, schedule: Q04DX003 (ip), vehicle: saline 92 % of control

Cc1ccc([N+](=O)[O-])cc1NC(=O)NCc1cccnc1
inactive: [9] 95 % of control | [10] 87 % of control | [11] 92 % of control

COC(OC)c1cc(=O)[nH]c(N)n1
inactive: [12] 103 % of control | dose: 50.0 mg/kg/injection, schedule: Q01DX009 (ip), vehicle: Klucel (hydroxypropylcellulose) (HPC) 109 % of control | [7] 97 % of control | [1] 101 % of control | [9] 100 % of control | [4] 93 % of control | [2] 108 % of control | [10] 104 % of control | [5] 96 % of control

Cc1ccc(S(=O)(=O)Nc2cc(Cl)c(I)cc2Cl)cc1
inactive: dose: 200.0 mg/kg/injection, schedule: Q04DX003 (ip), vehicle: saline with Tween-80 90 % of control | dose: 400.0 mg/kg/injection, schedule: Q04DX003 (ip), vehicle: saline with Tween-80 101 % of control

c1ccc(-c2nnc(N3CCCCC3)nc2-c2ccccc2)cc1
inactive: [12] 100 % of control | [1] 88 % of control | [2] 94 % of control

C=C1C(=O)O[C@H]2C[C@@]3(C)[C@H](O)CCC(=C)[C@@H]3[C@@H](OC(C)=O)[C@H]12
inactive: dose: 25.0 mg/kg/injection, schedule: Q04DX002 (ip), vehicle: saline with Tween-80 86 % of control | dose: 50.0 mg/kg/injection, schedule: Q04DX002 (ip), vehicle: saline with Tween-80 93 % of control | [8] 108 % of control and 90 % of control

CCCCOB1OC(C)CC(C)(C)O1 (configuration not stated)
inactive: [1] 106 % of control | [2] 97 % of control | [3] 99 % of control
